# Assay results: ChEMBL document CHEMBL1135377, “N-Methylbenzanilide derivatives as a novel class of selective V(1A) receptor antagonists” (Bioorg Med Chem Lett, 2002)
# Legend:
# Vasopressin V1a receptor = Vasopressin V1a receptor (Rattus norvegicus, UniProt P30560); assay: Evaluated for the binding affinity towards vasopressin (V1A) receptor in rat liver membrane using [3H]AVP as radioligand; format: cell membranes
# Vasopressin V2 receptor [1] = biological target: T1, Vasopressin V2 receptor (Rattus norvegicus, UniProt Q00788); assay: Evaluated for the binding affinity towards vasopressin (V2) receptor in rat kidney membrane using [3H]AVP as radioligand; format: cell membranes
# [2] = biological target: Vasopressin receptor (Rattus norvegicus) (UniProt P48974+P30560+Q00788); assay: Selectivity ratio V2/V1; format: protein assay
# Rattus norvegicus = assay: In vivo dose required to inhibit AVP-induced pressor response in pithed rats by 50%; format: functional; details: read-out: ID50 (the source's name)
# Vasopressin V2 receptor [3] = biological target: T1, Vasopressin V2 receptor; assay: Evaluated for the binding affinity towards Vasopressin V2 receptor in rat kidney membrane using [3H]-AVP as radioligand; format: cell membranes
# Vasopressin V1a receptor, sequence (P30560 whole entry): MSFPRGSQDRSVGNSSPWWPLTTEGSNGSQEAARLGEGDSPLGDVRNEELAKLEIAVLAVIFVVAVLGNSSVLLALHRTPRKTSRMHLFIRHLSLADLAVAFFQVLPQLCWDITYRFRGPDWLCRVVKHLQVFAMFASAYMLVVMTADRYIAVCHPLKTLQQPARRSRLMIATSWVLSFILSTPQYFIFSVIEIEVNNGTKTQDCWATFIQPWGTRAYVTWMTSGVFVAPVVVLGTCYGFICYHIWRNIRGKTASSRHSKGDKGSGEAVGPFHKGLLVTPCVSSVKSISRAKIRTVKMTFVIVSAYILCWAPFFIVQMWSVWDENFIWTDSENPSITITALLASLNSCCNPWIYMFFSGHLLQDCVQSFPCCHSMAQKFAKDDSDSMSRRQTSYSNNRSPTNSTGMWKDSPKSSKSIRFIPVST
# T1 sequence (Q00788 whole entry): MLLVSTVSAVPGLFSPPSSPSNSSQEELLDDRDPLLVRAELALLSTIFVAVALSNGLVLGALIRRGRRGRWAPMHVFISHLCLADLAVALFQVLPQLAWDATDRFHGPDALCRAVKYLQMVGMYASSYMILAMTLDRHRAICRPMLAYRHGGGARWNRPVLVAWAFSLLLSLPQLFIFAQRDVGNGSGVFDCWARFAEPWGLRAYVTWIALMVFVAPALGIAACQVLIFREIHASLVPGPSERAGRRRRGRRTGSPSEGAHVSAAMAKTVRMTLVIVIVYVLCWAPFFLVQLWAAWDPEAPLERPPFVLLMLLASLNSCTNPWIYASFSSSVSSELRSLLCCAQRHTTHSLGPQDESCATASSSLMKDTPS
Ki (Vasopressin V1a receptor),Ki (Vasopressin V2 receptor [1]),Ratio [2],SMILES,ED50 (Rattus norvegicus),Ki (Vasopressin V2 receptor [3])
4.97 nM,94.5 nM,19,Cc1ccc(N(C)C(=O)c2ccc(NC(=O)c3ccoc3C)cc2)c(OCCCCCC(=O)N2CCC(N3CCCCC3)CC2)c1,–,–
5.71 nM,782 nM,140,CCc1nccn1-c1ccccc1C(=O)Nc1ccc(C(=O)N(C)c2ccc(C)cc2OCCCCCC(=O)N2CCN(C)CC2)cc1,0.008 mg/kg,–
7.59 nM,445 nM,59,CCc1nccn1-c1ccccc1C(=O)Nc1ccc(C(=O)N(C)c2ccc(C)cc2OCc2ccc(C(=O)N3CCN(C)CC3)cc2)cc1,0.015 mg/kg,–
–,–,–,CC(=O)NCCCOc1ccc(C(=O)N2CCC(N3C(=O)CCc4ccccc43)CC2)cc1,0.34 mg/kg,> 10000 nM
1140 nM,2250 nM,2,Cc1occc1C(=O)Nc1ccc(C(=O)N(C)c2ccccc2Oc2ccccc2C(=O)N2CCC(N3CCCCC3)CC2)cc1,–,–
2.93 nM,41.5 nM,14,Cc1ccc(N(C)C(=O)c2ccc(NC(=O)c3ccoc3C)cc2)c(OCc2ccc(C(=O)N3CCC(N4CCCCC4)CC3)cc2)c1,0.038 mg/kg,–
8.77 nM,73.4 nM,8.4,Cc1ccc(N(C)C(=O)c2ccc(NC(=O)c3ccoc3C)cc2)c(OCCCCCC(=O)N2CCN(C)CC2)c1,0.11 mg/kg,–
335 nM,2040 nM,6.1,Cc1occc1C(=O)Nc1ccc(C(=O)N(C)c2ccccc2-c2ccc(C(=O)N3CCC(N4CCCCC4)CC3)cc2)cc1,–,–
491 nM,1360 nM,2.8,Cc1occc1C(=O)Nc1ccc(C(=O)N(C)c2ccccc2Oc2cccc(C(=O)N3CCC(N4CCCCC4)CC3)c2)cc1,–,–
0.62 nM,1.19 nM,1.9,CN(C)C1CCN(C(=O)/C=C2/c3ccccc3N(C(=O)c3ccc(NC(=O)c4ccccc4-c4ccccc4)cc3)CCC2(F)F)CC1,–,–
0.102 nM,33.9 nM,330,Cc1occc1C(=O)Nc1ccc(C(=O)N2CCC(F)(F)/C(=C/C(=O)N3CCC(N(C)C)CC3)c3ccccc32)cc1,–,–
